Key:
Type in all cases: cell-based
GSPT1 protein = target: T1, GSPT1 protein (Homo sapiens, UniProt P15170); experiment: GSPT1 protein degradation in HL60 cells (Western blot); conditions: for remaining GSPT1 protein at 0.01 µM: HL-60, compound at 10 nM, 24 h, gray value relative to Ctrl (DMSO), read-out: Remaining amount of GSPT1 protein (@10 nM/Ctrl)
T1 construct: degradation of myc and GSPT1 proteins in HL60 cells; endogenous in cells; host or cells: HL60
Procedure: (§1) HL60 cells in the exponential growth phase were digested and plated into a 6-well plate at 1×10^6 cells per well. The cell culture medium was RPMI-1640 (meilunbio, MA0215). After a day of adherent growth of the cells, the compound of the present invention was added as a test drug for culture, and proteins were extracted 24 h later (Ctrl meant adding only DMSO at the same volume).
(§2) In the 6-well plate, the culture medium RPMI-1640 (meilunbio, MA0215) was removed, and the cells were washed once with PBS, digested with trypsin, and centrifuged and collected separately into 1.5 mL centrifuge tubes. 100 μL of RIPA lysis buffer (containing 100 μM PMSF) was added to each tube, mixed thoroughly, allowed to stand on ice for 30 min and then centrifuged at 12000 rpm at 4° C. using a centrifuge for 20 min. The supernatant was used for Western blotting experiments. The sample can be stored at −80° C.
(§3) By using the BCA protein concentration determination kit (from Thermo Fisher, Cat. No. 23225), the BSA standard determination solution and the samples to be tested (the samples to be tested can be diluted and then tested) were prepared according to the table A below. Samples were added to the 96-well plate. Each well was supplemented with PBS to 20 μL, and then 200 μL of BCA working solution (prepared according to the kit) was added respectively and mixed evenly. The plate was placed at 60° C. for 10 min, and then the absorbance at 562 nm was detected. After the reading was recorded, a standard curve was plotted using concentration gradients of the standards, and the absorbance of the samples was substituted to calculate the protein concentration of the samples.
(§4) • 2.1 Protein denaturation: RIPA protein buffer (purchased from Solarbio, Cat. No. R0010) and 5× Loading Buffer (SDS, glycerin, bromophenol blue, TRIS) (purchased from Solarbio, Cat. No. P1040) were added, and the protein samples were denatured at 100° C. for 5 min. • 2.2 Sample loading and electrophoresis: 10% precast gel and the corresponding electrophoresis buffer were used. The same mass of protein sample and protein ladder (purchased from thermo, Cat. No. 26617) were loaded into each well, and electrophoresis at 200 V was performed for 30 min. • 2.3 […]: The gel was excised to remove the excess part. Transferring to PVDF membrane was performed by the wet transfer method (before use, it was necessary to activate the PVDF membrane with methanol for 1 min) at 300 mA for 2 h, during which a lot of heat was generated, and thus cooling with an ice box was required. • 2.4 Blocking: After the transferring, the PVDF membrane was placed in 5% skim milk and blocked with shaking at room temperature for 1 h. • 2.5 Incubating with primary antibody: The PVDF membrane was cut according to the molecular weight indicated on the marker and placed in c-myc (purchased from abcam, Cat. No. ab32072), or GSPT1 (purchased from abcam, Cat. No. ab234433), or CK1α (purchased from abcam, Cat. No. ab206652), or IKZF2 (purchased from proteintech, Cat. No. 13554-1-AP), and GAPDH (purchased from CST, Cat. No. #97166) primary antibodies. The antibodies were diluted with TBST buffer (a solution prepared from TRIS, KCL and NaCl and adjusted to pH 7.4 with hydrochloric acid, and Tween 20 was added) at a ratio of 1:1000, and blocked overnight on a shaker at 4° C. • 2.6 Incubating with secondary antibody: The PVDF membrane incubated with the primary antibody was washed with TBST for 3 times, each time for 10 min. After washing, the membrane was placed in the secondary antibody of the corresponding species, and incubated at room temperature in a shaker for 2 h. • 2.7 Washing membrane and exposure: After incubated with the secondary antibodies, the membrane was washed 3 times with TBST on a shaker, 10 minutes each time. […]

HL60 cells = experiment: Anti-proliferation on HL60 cells (CellTiter-Glo, 3 days); conditions: Homo sapiens, HL-60, 72 h, 3 days incubation, CTG luminescence, IC50 by XLfit, read-out: HL60 cells Proliferation inhibitory activity
Method in brief: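 Log-phase cells were plated at 20000 cells/well and treated with compound dilutions in RPMI-1640 for 3 days, with 0.1% DMSO controls. Proliferation was read by CellTiter-Glo luminescence. IC50 was fitted from the inhibition rates.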

c-Myc protein = target: T2, c-Myc protein (Homo sapiens, UniProt P01106); experiment: c-Myc protein degradation in HL60 cells (Western blot); conditions: for remaining activity at 0.01 µM: HL-60, compound at 10 nM, 24 h, gray value relative to Ctrl (DMSO), read-out: Remaining amount of c-Myc protein (@10 nM/Ctrl)
T2 construct: degradation of myc and GSPT1 proteins in HL60 cells; endogenous in cells; host or cells: HL60
Procedure: as §1, §2, §3, §4

T1 sequence (P15170 whole entry): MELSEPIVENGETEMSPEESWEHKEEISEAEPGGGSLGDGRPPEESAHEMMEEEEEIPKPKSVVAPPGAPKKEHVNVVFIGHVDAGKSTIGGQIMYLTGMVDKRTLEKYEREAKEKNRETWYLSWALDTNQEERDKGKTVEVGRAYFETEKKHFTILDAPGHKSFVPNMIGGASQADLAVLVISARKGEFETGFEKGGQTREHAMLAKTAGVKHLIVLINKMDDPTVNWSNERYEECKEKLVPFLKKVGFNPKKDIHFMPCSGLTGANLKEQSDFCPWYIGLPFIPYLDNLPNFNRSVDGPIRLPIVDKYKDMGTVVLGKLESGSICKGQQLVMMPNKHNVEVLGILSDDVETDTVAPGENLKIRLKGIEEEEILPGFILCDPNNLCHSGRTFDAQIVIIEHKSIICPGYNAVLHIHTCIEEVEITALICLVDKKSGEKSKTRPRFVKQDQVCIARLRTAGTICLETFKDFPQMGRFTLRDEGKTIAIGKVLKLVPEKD
T2 sequence (P01106 whole entry): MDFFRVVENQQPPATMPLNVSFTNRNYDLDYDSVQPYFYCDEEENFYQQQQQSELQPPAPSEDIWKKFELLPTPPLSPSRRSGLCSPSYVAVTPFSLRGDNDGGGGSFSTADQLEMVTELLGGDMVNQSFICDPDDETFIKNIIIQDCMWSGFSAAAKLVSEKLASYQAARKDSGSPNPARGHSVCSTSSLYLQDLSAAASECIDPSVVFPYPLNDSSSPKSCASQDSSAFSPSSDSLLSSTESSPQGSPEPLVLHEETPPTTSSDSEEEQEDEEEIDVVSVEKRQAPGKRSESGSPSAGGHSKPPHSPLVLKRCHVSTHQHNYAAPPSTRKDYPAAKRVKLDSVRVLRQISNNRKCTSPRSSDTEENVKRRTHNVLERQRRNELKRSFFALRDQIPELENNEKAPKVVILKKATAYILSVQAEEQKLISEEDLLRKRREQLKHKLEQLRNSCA

Row | SMILES | remaining GSPT1 protein at 0.01 µM (GSPT1 protein) [%] | IC50 (HL60 cells) [nM] | remaining activity at 0.01 µM (c-Myc protein) [%] | Degradation of GSPT1 protein in HL60 cells at 100 nM (FIG. 3, in words) (GSPT1 protein; 100 nM) | Degradation of GSPT1 protein in HL60 cells at 300 nM (FIG. 2, FIG. 3, in words) (GSPT1 protein; 300 nM) | Degradation of c-Myc protein in HL60 cells at 300 nM (FIG. 2, FIG. 3, in words) (c-Myc protein; 300 nM)
1 | O=C1CCC(N2Cc3cc(CNCC4CCN(c5ncc(-c6cccc(F)c6)cn5)CC4)ccc3C2=O)C(=O)N1 (stereo not shown) [Compound A67] | 25 | 2 | 19 | – | – | –
2 | Cc1cccc(-c2cnc(N3CCC(CNCc4ccc5c(c4)CN(C4CCC(=O)NC4=O)C5=O)CC3)nc2)c1 (stereo not shown) [Compound A68] | 0 | < 0.2 | 0 | – | – | –
3 | N#Cc1cccc(-c2cnc(N3CCC(CNCc4ccc5c(c4)CN(C4CCC(=O)NC4=O)C5=O)CC3)nc2)c1 (stereo not shown) [Compound A69] | 53 | 22 | 30 | – | – | –
4 | O=C1CCC(N2Cc3cc(CNCC4CCN(c5ccc(-c6cccc(Cl)c6)cn5)CC4)ccc3C2=O)C(=O)N1 (stereo not shown) [Compound A70] | 23 | < 0.2 | 216 | – | – | –
5 | O=C1CCC(N2Cc3cc(CNCC4CCN(c5ccc(-c6cccc(Cl)c6)nc5)CC4)ccc3C2=O)C(=O)N1 (stereo not shown) [Compound A71] | 0 | < 0.2 | 26 | – | – | –
6 | O=C1CCC(N2Cc3cc(CNCC4CCN(c5ncc(-c6ccccc6Cl)cc5F)CC4)ccc3C2=O)C(=O)N1 (stereo not shown) [Compound A72] | 0 | 63 | 16 | – | – | –
7 | O=C1CCC(N2Cc3cc(CNCC4CCN(c5ncc(-c6cccc(Cl)c6)cc5F)CC4)ccc3C2=O)C(=O)N1 (stereo not shown) [Compound A73] | 0 | < 0.2 | 0 | – | – | –
8 | O=C1CCC(N2Cc3cc(CNCC4CCN(c5ncc(-c6ccc(Cl)cc6)cc5F)CC4)ccc3C2=O)C(=O)N1 (stereo not shown) [Compound A74] | 10 | 1.1 | 104 | – | – | –
9 | O=C1CCC(N2Cc3cc(CNCC4CCN(c5ncc(-c6cccc(Cl)c6)cc5Cl)CC4)ccc3C2=O)C(=O)N1 (stereo not shown) [Compound A75] | 0 | < 0.2 | 0 | – | – | –
10 | COc1cc(-c2cccc(Cl)c2)cnc1N1CCC(CNCc2ccc3c(c2)CN(C2CCC(=O)NC2=O)C3=O)CC1 (stereo not shown) [Compound A77] | 2 | < 0.2 | 50 | – | – | –
11 | O=C1CC[C@H](N2Cc3cc(CNCC4CCN(c5ncc(-c6cccc(Cl)c6)cc5C(F)(F)F)CC4)ccc3C2=O)C(=O)N1 [Compound A81] | 0 | < 0.2 | 0 | – | – | –
12 | O=C1CCC(N2Cc3cc(CNCC4(F)CCN(c5ncc(-c6cccc(Cl)c6)cc5C(F)(F)F)CC4)ccc3C2=O)C(=O)N1 (stereo not shown) [Compound A83] | 0 | 1.2 | 4 | – | – | –
13 | Cc1cccc(-c2cnc(N3CCC(F)(CNCc4ccc5c(c4)CN(C4CCC(=O)NC4=O)C5=O)CC3)c(C(F)(F)F)c2)c1 (stereo not shown) [Compound A85] | 3 | 1 | 8 | – | – | –
14 | O=C1CCC(N2Cc3cc(CNCC4CCN(c5ncc(-c6cccc(Cl)c6)cc5F)CC4F)ccc3C2=O)C(=O)N1 (stereo not shown) [Compound A87] | 0 | 0.6 | 11 | – | – | –
15 | O=C1CCC(N2Cc3cc(CNCC4CCN(c5ncc(-c6ccccc6)cc5C(F)(F)F)CC4)ccc3C2=O)C(=O)N1 (stereo not shown) [Compound A92] | 0 | < 0.2 | 6 | – | – | –
16 | O=C1CCC(N2Cc3cc(CNCC4CCN(c5ncc(-c6cccc(F)c6)cc5C(F)(F)F)CC4)ccc3C2=O)C(=O)N1 (stereo not shown) [Compound A93] | 0 | 1.6 | 12 | – | – | –
17 | Cc1cccc(-c2cnc(N3CCC(CNCc4ccc5c(c4)CN(C4CCC(=O)NC4=O)C5=O)CC3)c(C(F)(F)F)c2)c1 (stereo not shown) [Compound A94] | 0 | 0.1 | 0 | – | – | –
18 | COc1cccc(-c2cnc(N3CCC(CNCc4ccc5c(c4)CN(C4CCC(=O)NC4=O)C5=O)CC3)c(C(F)(F)F)c2)c1 (stereo not shown) [Compound A95] | 0 | < 0.2 | 0 | – | – | –
19 | N#Cc1cc(-c2cccc(Cl)c2)cnc1N1CCC(CNCc2ccc3c(c2)CN(C2CCC(=O)NC2=O)C3=O)CC1 (stereo not shown) [Compound A98] | 3 | 1 | 157 | – | – | –
20 | COC(=O)c1cc(-c2cccc(Cl)c2)cnc1N1CCC(CNCc2ccc3c(c2)CN(C2CCC(=O)NC2=O)C3=O)CC1 (stereo not shown) [Compound A100] | 0 | < 0.2 | 0 | – | – | –
21 | O=C1CCC(N2Cc3cc(CNCC4CCN(c5cnc(-c6cccc(Cl)c6)cn5)CC4)ccc3C2=O)C(=O)N1 (stereo not shown) [Compound A102] | 0 | 0.5 | 0 | – | – | –
22 | N#Cc1cc(-c2cccc(Cl)c2)ccc1N1CCC(CNCc2ccc3c(c2)CN(C2CCC(=O)NC2=O)C3=O)CC1 (stereo not shown) [Compound A103] | 0 | 1.5 | 6 | – | – | –
23 | CC(NCc1ccc2c(c1)CN(C1CCC(=O)NC1=O)C2=O)C1CCN(c2ncc(-c3cccc(Cl)c3)cc2F)CC1 (stereo not shown) [Compound A105] | 7 | 55 | 333 | – | – | –
24 | O=C1CCC(N2Cc3cc(CNCC4CCN(c5ncc(-c6ccccc6F)cc5F)CC4)ccc3C2=O)C(=O)N1 (stereo not shown) [Compound A107] | 1 | 9.1 | 46 | – | – | –
25 | O=C1CCC(N2Cc3cc(CNCC4CCN(c5ncc(-c6cccc(F)c6)cc5F)CC4)ccc3C2=O)C(=O)N1 (stereo not shown) [Compound A108] | 29 | < 0.2 | 2 | – | – | –
26 | O=C1CCC(N2Cc3cc(CNCC4CCN(c5ncc(-c6ccc(F)cc6)cc5F)CC4)ccc3C2=O)C(=O)N1 (stereo not shown) [Compound A109] | 6 | 6.2 | 3 | – | – | –
27 | O=C1CCC(N2Cc3cc(CNCC4CCN(c5ncc(-c6cccc(C(F)(F)F)c6)cc5F)CC4)ccc3C2=O)C(=O)N1 (stereo not shown) [Compound A110] | 0 | < 0.2 | 3 | – | – | –
28 | N#Cc1cccc(-c2cnc(N3CCC(CNCc4ccc5c(c4)CN(C4CCC(=O)NC4=O)C5=O)CC3)c(F)c2)c1 (stereo not shown) [Compound A111] | 2 | 1.3 | 6 | – | – | –
29 | COc1cccc(-c2cnc(N3CCC(CNCc4ccc5c(c4)CN(C4CCC(=O)NC4=O)C5=O)CC3)c(F)c2)c1 (stereo not shown) [Compound A112] | 0 | < 0.2 | 0 | – | – | –
30 | O=C1CCC(N2Cc3cc(NCCC4CCN(c5ncc(-c6cccc(Cl)c6)cc5C(F)(F)F)CC4)ccc3C2=O)C(=O)N1 (stereo not shown) [Compound A131] | – | 35.8 | – | significantly degrade GSPT1 protein | simultaneously degrade both GSPT1 and c-Myc proteins | simultaneously degrade both GSPT1 and c-Myc proteins

Source: patent publication US20250059162A1, “MULTI-PROTEIN DEGRADATION AGENT HAVING IMIDE SKELETON” (SUZHOU KINTOR PHARMACEUTICALS, INC., priority 2021, published 2025)
